Measured values as given in patent US20150315241A1, “Antibiotic Peptides” (priority 2007, published 2015).
Values after ≈ are worked out from the molar mass of the structure shown. Where a SMILES comes first, the peptide text is derived from it. Where no end group is shown, it is not given here. [ ]: non-standard residue; d: D form. Hyp = O=C(O)[C@@H]1C[C@@H](O)CN1; Orn = NCCC[C@H](N)C(=O)O

Key:
B. subtilis 347 = format: cell-based, Bactillus subtillis; details: 347, 20 h
In short: (§1)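 Two-fold serial dilution in 1% TSB, final 125 μg/mL to 60 ng/mL; inoculum 5×10^6 CFU/mL (before 1:1 mixing with peptide). Incubated 20 hrs at 37° C., growth read as absorbance at 595 nm, in triplicate with sterile water as negative control.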

[1] = tested on: S. enterica subsp. Enterica serovar. typhi G10215 ATCC 700408; format: cell-based, Salmonella enterica; details: ATCC 700408, 20 h
In short: (§2)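 Bacteria grown overnight in nutrient broth at 37° C were diluted to 5×10^6 CFU/mL in 1% TSB and exposed to peptides serially halved from 125 μg/mL to 60 ng/mL final. After 20 h at 37° C, A595 gave the MIC, measured in triplicate.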

S. typhi S5 = format: cell-based, Salmonella typhi; details: S5, 20 h
In short: as §2

Mycobacterium vaccae = format: cell-based; details: 20 h
Procedure: The minimal inhibition concentrations (MIC) of the apidaecin-derived peptides and peptide-derivatives were determined by a growth inhibition assay using a serial peptide dilution in sterilized round-bottom 96-well plates (polystyrene, U-bottom, Greiner Bio-One GmbH) with a final volume of 100 μL per well. The bacteria, e.g., E. coli BL21 A1, were grown in nutrient broth (NB, Carl Roth GmbH+Co. KG, Karlsruhe, Germany) at 37° C. over night. To each well of the 96-well plate, 50 μL of the overnight culture adjusted to 5×10^6 CFU/mL in 1% TSB were added. Lyophilized peptides and peptidomimetics were dissolved in 1% TSB (tryptic soy broth) or water to give a final concentration of 250 μg/mL. Fifty μL of the peptide or peptidomimetics solution were added to the first well of a row on the plate and mixed. Fifty μL of the first well containing the peptide solution were transferred to the second well, mixed and again 50 μL transferred to the next well and so on. Thereby, a two-fold dilution series was obtained starting at 250 μg/mL in the first well down to 120 ng/mL in the 12th well of a row giving a final peptide or peptidomimetics concentration from 125 μg/mL (well 1) to 60 ng/mL (well 12). Plates were incubated at 37° C. for 20 hrs. The absorbance was measured at 595 nm using a TECAN micro plate spectrophotometer (Tecan, Germany). All peptides and peptidomimetics were measured in triplicates. Sterilized water was used as a negative control.
The bacteria strains were tested: • Eschericha coli 1103, 10233, BL 21 AI, DC 2, • Klebsiella pneumoniae 681, • Micrococcus luteus ATCC 10240, • Mycobacterium vaccae • Bactillus subtillis 347.

K. pneumonia 681 = format: cell-based, Klebsiella pneumoniae; details: 20 h
In short: as §1

E. coli 1103 = format: cell-based, Escherichia coli; details: 1103, 20 h
In short: as §1

E. coli D31 = format: cell-based, Escherichia coli; details: D31, 20 h
In short: as §2

M. luteus ATCC 10240 = format: cell-based, Micrococcus luteus; details: ATCC 10240, 20 h
In short: as §1

E. coli DC 2 = assay: Growth inhibition assay (MIC); format: cell-based, Escherichia coli; details: 1% TSB, 37° C., 20 hrs
In short: as §1

E. coli BL 21 AI = assay: Growth inhibition assay (MIC); format: cell-based, Escherichia coli; details: 1% TSB, 37° C., 20 hrs
In short: as §1

[2] = tested on: R. radiobatter ATCC 15955; assay: Growth inhibition assay (MIC); format: cell-based, Rhizobium radiobacter; details: multidrug resistant strain; 1% TSB, 37° C., 20 hrs
In short: as §2

[3] = tested on: K. Pneumonia K6, ATCC 700603; assay: Growth inhibition assay (MIC); format: cell-based, Klebsiella pneumoniae; details: multidrug resistant strain; 1% TSB, 37° C., 20 hrs
In short: as §2

K. Pneumonia 123132 = assay: Growth inhibition assay (MIC); format: cell-based, Klebsiella pneumoniae; details: multidrug resistant strain; 1% TSB, 37° C., 20 hrs
In short: as §2

E. coli 45849 = assay: Growth inhibition assay (MIC); format: cell-based, Escherichia coli; details: multidrug resistant strain; 1% TSB, 37° C., 20 hrs
In short: as §2

Row | Compound | MIC B. subtilis 347 (B. subtilis 347) [µg/mL] | MIC S. enterica subsp. Enterica serovar. typhi G10215 ATCC 700408 [1] [µg/mL] | MIC S. typhi S5 (S. typhi S5) [µg/mL] | MIC Mycobacterium vaccae (Mycobacterium vaccae) [µg/mL] | MIC K. pneumonia 681 (K. pneumonia 681) [µg/mL] | MIC E. coli 1103 (E. coli 1103) [µg/mL] | MIC E. coli D31 (E. coli D31) [µg/mL] | MIC M. luteus ATCC 10240 (M. luteus ATCC 10240) [µg/mL] | MIC E. coli DC 2 (E. coli DC 2) [µg/mL] | MIC E. coli BL 21 AI (E. coli BL 21 AI) [µg/mL] | MIC R. radiobatter ATCC 15955 [2] [µg/mL] | MIC K. Pneumonia K6, ATCC 700603 [3] [µg/mL] | MIC K. Pneumonia 123132 (K. Pneumonia 123132) [µg/mL] | MIC E. coli 45849 (E. coli 45849) [µg/mL]
1 | CC[C@H](C)[C@H](NC(=O)[C@H](CCCNC(=N)N)NC(=O)[C@@H]1CCCN1C(=O)[C@H](Cc1c[nH]cn1)NC(=O)[C@@H]1CCCN1C(=O)[C@@H]1CCCN1C(=O)[C@H](CCCNC(=N)N)NC(=O)[C@@H]1C[C@@H](O)CN1C(=O)[C@H](CCCNC(=N)N)NC(=O)[C@@H]1CCCN1C(=O)[C@@H](NC(=O)[C@H](Cc1ccc(O)cc1)NC(=O)[C@@H](NC(=O)[C@@H]1CCCN1C(=O)[C@H](CCCNC(=N)N)NC(=O)[C@H](CC(N)=O)NC(=O)[C@H](CC(N)=O)NC(=O)CN)C(C)C)[C@@H](C)CC)C(N)=O [compound 15] (H-GNNRPVYIPR[Hyp]RPPHPRI-NH2) | >125 | 2 (≈ 0.93 µM) | 2 (≈ 0.93 µM) | 125 (≈ 58.1 µM) | 3.9 (≈ 1.81 µM) | 1.95 (≈ 0.906 µM) | 64 (≈ 29.7 µM) | 1.95 (≈ 0.906 µM) |  |  |  |  |  | 
2 | CC[C@H](C)[C@H](NC(=O)[C@H](CCCNC(=N)N)NC(=O)[C@@H]1CCCN1C(=O)[C@H](Cc1c[nH]cn1)NC(=O)[C@@H]1CCCN1C(=O)[C@@H]1CCCN1C(=O)[C@H](CCCNC(=N)N)NC(=O)[C@@H]1CCCN1C(=O)[C@H](CCCNC(=N)N)NC(=O)[C@@H]1CCCN1C(=O)[C@@H](NC(=O)[C@H](Cc1ccc(O)cc1)NC(=O)[C@@H](NC(=O)[C@@H]1CCCN1C(=O)[C@H](CCCNC(=N)N)NC(=O)[C@H](CC(N)=O)NC(=O)[C@H](CC(N)=O)NC(=O)[C@H](CCCN)NC(C)=O)C(C)C)[C@@H](C)CC)C(N)=O [compound 65] (Ac-[Orn]NNRPVYIPRPRPPHPRI-NH2) | 125 (≈ 55.9 µM) |  |  | 62.5 (≈ 28 µM) | 7.81 (≈ 3.49 µM) | 1.95 (≈ 0.873 µM) |  | 0.98 (≈ 0.439 µM) | 7.81 (≈ 3.49 µM) | 0.98 (≈ 0.439 µM) |  |  |  | 
3 | Ac-GNNRPVYIPRPRPPHPRL-NH2 [compound 67] | 125 |  |  | 125 | 3.9 | 3.9 |  | 1.95 | 3.9 | 3.91 |  |  |  | 
4 | GNNRPVYIPKPRPPHPRI-NH2 [compound 17] |  | 4 to 8 | 16 |  | 31.25 | 1.95 | 32 | 0.98 | 31.25 | 0.98 | 0.65 | 32 | 16 | 8
5 | H-GNNKPVYIPRPRPPHPRLV-NH2 [compound 68] | >125 |  |  | 125 | 31.25 | 3.9 |  | 0.24 | 7.81 | 7.81 |  |  |  | 
6 | H-GNNRPVYIPRPRPPHPRL-NH2 [compound 66] | 62.5 |  |  | 125 | 3.9 | 3.9 |  | 1.95 | 1.95 | 1.95 |  |  |  | 
7 | H-GNNRPVYLPQPRPPHPRI-NH2 [compound 26] |  | 4 | 32 |  | 15.62 | 3.91 | >128 | 1.95 | 7.81 | 3.91 | 2.6 | 128 | 32 | 16
